Source: ChEMBL document CHEMBL1201862, “PubChem BioAssay data set” (2004)
Activity calls are given as the source filed them.

Experiments:
[1] = biological target: T1, Zinc finger protein mex-5 (Caenorhabditis elegans, UniProt Q9XUB2); assay: MEX-5/TCR-2 RNA interaction inhibitors, dose response, biochemical, C. elegans, fluorescence polarization (AID 1960)
T1 sequence (Q9XUB2 whole entry): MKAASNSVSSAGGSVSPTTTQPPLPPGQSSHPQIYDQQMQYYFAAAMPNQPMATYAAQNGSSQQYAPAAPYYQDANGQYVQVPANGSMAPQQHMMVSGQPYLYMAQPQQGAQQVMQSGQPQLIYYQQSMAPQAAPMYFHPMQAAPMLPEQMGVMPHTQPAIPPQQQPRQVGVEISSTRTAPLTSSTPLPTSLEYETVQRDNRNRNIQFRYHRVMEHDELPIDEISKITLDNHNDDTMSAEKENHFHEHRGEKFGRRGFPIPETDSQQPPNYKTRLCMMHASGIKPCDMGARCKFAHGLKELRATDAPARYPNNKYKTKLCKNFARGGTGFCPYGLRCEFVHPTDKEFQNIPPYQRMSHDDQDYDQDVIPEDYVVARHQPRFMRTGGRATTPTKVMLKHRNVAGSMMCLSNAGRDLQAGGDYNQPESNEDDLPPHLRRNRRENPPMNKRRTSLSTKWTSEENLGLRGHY

[2] = cytotoxicity in KRAS-transformed pancreatic duct cells, primary screen, cell-based, fluorescence, HTS (AID 431); format: functional; conditions: Homo sapiens;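 further: cell line used: HPDE-C7K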
[3] = cytotoxicity in HPDE-C7 cells, cell-based, fluorescence, HTS (AID 430); format: functional; conditions: Homo sapiens
[4] = biological target: T2, RNA-binding protein pos-1 (Caenorhabditis elegans, UniProt G5EF15); assay: inhibitors of POS-1/mex-3 RNA binding, dose response, biochemical, fluorescence polarization (AID 1964);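 further: purified POS-1 fused to maltose binding protein made in E. coli; potency of compounds blocking POS-1 binding to fluorescent RNA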
T2 sequence (G5EF15 whole entry): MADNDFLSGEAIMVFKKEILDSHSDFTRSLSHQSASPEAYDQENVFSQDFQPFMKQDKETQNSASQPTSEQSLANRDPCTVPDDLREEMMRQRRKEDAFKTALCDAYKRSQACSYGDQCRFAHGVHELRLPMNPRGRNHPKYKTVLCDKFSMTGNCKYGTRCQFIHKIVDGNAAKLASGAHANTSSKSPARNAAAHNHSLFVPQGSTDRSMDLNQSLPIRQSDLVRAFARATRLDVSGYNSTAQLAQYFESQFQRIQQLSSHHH

[5] = biological target: Luciferin 4-monooxygenase (Photinus pyralis, UniProt P08659); assay: Counter Screen for Luciferase-based Assay Positives. [Related pubchem assays: 620, 618, 411 ]
Sequence of Luciferin 4-monooxygenase (P08659 whole entry): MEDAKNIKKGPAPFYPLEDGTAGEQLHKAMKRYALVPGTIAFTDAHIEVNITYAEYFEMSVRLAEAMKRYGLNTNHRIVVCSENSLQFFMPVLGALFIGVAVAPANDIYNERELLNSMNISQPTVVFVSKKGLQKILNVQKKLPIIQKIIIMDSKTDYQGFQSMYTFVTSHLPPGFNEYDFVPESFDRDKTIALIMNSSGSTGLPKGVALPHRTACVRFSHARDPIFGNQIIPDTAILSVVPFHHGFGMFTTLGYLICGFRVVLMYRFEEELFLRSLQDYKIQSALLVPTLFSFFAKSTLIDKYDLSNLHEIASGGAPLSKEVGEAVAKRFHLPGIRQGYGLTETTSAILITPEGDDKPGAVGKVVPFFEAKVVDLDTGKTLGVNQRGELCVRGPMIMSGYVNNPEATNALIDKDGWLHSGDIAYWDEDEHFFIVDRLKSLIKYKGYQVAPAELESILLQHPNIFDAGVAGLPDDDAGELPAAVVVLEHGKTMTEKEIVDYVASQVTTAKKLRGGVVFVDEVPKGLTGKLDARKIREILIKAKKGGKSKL

[6] = test system: HT-1080; assay: cytotoxicity in HT1080 fibrosarcoma cells, cell-based, fluorescence readout (AID 620); format: functional; conditions: Homo sapiens
[7] = biological target: Cytochrome P450 2D6 (Homo sapiens, UniProt P10635);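 further: CYP2D6 member of a cytochrome P450 panel assay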
Sequence of Cytochrome P450 2D6 (P10635 whole entry): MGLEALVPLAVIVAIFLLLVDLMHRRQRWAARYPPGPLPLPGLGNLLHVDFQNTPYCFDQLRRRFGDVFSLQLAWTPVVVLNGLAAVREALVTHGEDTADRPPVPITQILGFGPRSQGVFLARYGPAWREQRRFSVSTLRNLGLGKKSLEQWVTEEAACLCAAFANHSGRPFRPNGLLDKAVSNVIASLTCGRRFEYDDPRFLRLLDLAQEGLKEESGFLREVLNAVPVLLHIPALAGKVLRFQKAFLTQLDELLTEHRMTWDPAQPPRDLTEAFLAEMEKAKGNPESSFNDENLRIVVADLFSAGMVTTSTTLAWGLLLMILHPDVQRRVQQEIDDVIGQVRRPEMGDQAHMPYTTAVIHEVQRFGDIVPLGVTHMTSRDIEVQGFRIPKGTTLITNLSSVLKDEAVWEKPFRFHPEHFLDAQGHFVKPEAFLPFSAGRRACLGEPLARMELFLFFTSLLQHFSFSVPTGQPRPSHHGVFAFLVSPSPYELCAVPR

[8] = biological target: T3, Sphingosine 1-phosphate receptor 4 (Homo sapiens, UniProt O95977); assay: Fluorescence dose response cell-based high throughput screening assay for antagonists of the Sphingosine 1-Phosphate Receptor 4 (S1P4). [Related pubchem assays: 1524 (Confirmation in triplicates.), 1510 (Primary screen.)]; format: functional
T3 sequence (O95977 whole entry): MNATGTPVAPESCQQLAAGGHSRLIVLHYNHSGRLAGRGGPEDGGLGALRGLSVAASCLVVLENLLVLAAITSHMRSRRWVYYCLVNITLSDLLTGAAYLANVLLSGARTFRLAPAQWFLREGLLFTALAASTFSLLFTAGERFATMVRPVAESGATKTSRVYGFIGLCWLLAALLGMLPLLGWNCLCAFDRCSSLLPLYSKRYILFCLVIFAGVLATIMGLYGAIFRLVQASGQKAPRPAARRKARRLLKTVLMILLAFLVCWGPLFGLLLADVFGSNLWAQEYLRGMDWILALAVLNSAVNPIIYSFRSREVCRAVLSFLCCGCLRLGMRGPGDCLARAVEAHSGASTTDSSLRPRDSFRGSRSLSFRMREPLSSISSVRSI

[9] = test system: INS1; assay: beta cell apoptosis inhibitors, cytokine rescue, dose response, luminescence, retest (AID 449756); format: functional, cell-based; conditions: Rattus norvegicus;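 further: cell death triggered by IL-1 beta plus TNF-alpha plus IFN-gamma mixture; protective hits raise ATP signal compared with cytokine alone wells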
[10] = test system: BJ; assay: cytotoxicity toward BJ-TERT-LT-ST fibroblasts, dose response, cell-based, RAS-independent, luminescence (AID 1935); format: functional; conditions: Homo sapiens;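 further: BJ fibroblasts immortalized with TERT plus LT and ST oncogenes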
[11] = test system: BJ; assay: cells; format: functional, cell-based; conditions: Homo sapiens
[12] = cytotoxicity toward DRD oncogenic fibroblasts, dose response, cell-based, non-viral oncogenic, luminescence (AID 1934); format: functional; conditions: Homo sapiens
[13] = biological target: Ion channel NompC (Danio rerio, UniProt Q7T1G6); assay: Dose response cell-based high-throughput screening assay for agonists of the transient receptor potential channel N1 (TRPN1). [Related pubchem assays (depositor defined):AID1424, AID1448]; format: functional
Sequence of Ion channel NompC (Q7T1G6 whole entry): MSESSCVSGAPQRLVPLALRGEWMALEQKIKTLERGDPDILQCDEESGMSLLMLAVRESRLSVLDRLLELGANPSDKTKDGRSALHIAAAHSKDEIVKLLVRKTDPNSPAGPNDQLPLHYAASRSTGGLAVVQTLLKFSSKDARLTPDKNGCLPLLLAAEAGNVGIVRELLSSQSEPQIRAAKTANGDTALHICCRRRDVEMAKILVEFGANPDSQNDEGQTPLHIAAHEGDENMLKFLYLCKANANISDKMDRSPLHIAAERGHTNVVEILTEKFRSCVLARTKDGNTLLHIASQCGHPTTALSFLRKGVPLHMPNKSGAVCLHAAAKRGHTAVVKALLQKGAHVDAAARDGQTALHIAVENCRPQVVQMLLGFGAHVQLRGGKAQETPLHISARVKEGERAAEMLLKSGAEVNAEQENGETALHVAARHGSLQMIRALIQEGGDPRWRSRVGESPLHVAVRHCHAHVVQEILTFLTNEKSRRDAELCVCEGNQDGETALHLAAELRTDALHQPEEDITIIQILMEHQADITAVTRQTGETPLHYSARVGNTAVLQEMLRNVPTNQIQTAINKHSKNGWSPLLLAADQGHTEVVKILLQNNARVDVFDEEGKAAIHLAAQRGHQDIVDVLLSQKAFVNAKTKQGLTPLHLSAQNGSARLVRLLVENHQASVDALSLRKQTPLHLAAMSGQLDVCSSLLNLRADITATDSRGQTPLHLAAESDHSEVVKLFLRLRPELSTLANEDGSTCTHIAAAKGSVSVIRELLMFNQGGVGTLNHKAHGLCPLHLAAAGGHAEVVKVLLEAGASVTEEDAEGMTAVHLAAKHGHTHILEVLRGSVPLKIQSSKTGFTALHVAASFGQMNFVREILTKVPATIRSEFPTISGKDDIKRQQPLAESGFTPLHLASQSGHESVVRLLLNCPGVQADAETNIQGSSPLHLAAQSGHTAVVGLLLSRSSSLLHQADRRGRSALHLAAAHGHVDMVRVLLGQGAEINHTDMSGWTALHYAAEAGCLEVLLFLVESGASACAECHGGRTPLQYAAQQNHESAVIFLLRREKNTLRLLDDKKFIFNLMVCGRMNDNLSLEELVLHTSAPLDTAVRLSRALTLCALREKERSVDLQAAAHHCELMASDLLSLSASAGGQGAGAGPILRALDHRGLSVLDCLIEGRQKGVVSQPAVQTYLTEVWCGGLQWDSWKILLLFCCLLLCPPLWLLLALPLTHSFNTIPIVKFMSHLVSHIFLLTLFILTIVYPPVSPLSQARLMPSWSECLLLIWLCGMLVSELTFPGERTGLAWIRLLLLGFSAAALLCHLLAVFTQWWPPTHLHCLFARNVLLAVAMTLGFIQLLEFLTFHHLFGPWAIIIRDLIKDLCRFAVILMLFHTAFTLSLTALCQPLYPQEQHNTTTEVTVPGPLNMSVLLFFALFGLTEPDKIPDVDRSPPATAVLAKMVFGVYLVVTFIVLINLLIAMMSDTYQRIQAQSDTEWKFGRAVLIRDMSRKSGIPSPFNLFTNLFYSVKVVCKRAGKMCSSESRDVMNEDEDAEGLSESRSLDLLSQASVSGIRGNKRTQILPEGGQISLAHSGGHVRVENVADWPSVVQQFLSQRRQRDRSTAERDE

[14] = test system: BJ; assay: cytotoxicity toward BJ-TERT fibroblasts, dose response, cell-based, RAS-independent, luminescence (AID 1933); format: functional; conditions: Homo sapiens
[15] = biological target: Sphingosine 1-phosphate receptor 1 (Homo sapiens, UniProt P21453); format: functional;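 further: Tango beta-arrestin reporter U2OS cells stimulated with S1P near its EC80; inhibitor potency meaning antagonism of receptor activation by the natural agonist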
Sequence of Sphingosine 1-phosphate receptor 1 (P21453 whole entry): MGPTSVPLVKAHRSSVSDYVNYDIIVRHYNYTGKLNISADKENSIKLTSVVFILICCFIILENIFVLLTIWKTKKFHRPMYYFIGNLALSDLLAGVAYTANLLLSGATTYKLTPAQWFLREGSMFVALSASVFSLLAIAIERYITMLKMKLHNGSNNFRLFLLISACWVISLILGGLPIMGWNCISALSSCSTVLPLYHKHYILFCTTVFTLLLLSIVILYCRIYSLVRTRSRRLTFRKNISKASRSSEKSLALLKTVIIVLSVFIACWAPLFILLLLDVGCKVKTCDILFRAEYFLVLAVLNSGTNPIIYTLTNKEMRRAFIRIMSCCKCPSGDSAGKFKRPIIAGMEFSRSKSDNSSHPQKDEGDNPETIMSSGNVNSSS

[16] = biological target: T3, Sphingosine 1-phosphate receptor 4; assay: Late stage fluorescence dose response cell-based screening assay for antagonists of the Sphingosine 1-Phosphate Receptor 4 (S1P4). [Related pubchem assays: 1524 (Confirmation screen (S1P4 antagonists).), 1510 (Primary screen (S1P4 antagonists).), 1853 (Summary AID (S1P4 antagonists).), 1692 (Dose response screen (S1P4 antagonists).)]; format: functional
[17] = test system: BJ; assay: cytotoxicity toward Ras-transformed BJeLR fibroblasts, dose response, cell-based, alamar blue fluorescence, cherrypicked samples (AID 2631); format: functional; conditions: Homo sapiens;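 further: confirmatory dose-response assay in RAS-dependent BJ fibroblasts engineered with TERT, LT and ST, with cytotoxicity read by fluorescence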
[18] = biological target: T4, Mucolipin-3 (Homo sapiens, UniProt Q8TDD5); assay: Fluorescence counterscreen assay for […] agonists: dose response cell-based high-throughput screening assay to identify agonists of the transient receptor potential channel ML3 (TRPML3). [Related pubchem assays: 1424, 1448 ]; format: functional
T4 sequence (Q8TDD5 whole entry): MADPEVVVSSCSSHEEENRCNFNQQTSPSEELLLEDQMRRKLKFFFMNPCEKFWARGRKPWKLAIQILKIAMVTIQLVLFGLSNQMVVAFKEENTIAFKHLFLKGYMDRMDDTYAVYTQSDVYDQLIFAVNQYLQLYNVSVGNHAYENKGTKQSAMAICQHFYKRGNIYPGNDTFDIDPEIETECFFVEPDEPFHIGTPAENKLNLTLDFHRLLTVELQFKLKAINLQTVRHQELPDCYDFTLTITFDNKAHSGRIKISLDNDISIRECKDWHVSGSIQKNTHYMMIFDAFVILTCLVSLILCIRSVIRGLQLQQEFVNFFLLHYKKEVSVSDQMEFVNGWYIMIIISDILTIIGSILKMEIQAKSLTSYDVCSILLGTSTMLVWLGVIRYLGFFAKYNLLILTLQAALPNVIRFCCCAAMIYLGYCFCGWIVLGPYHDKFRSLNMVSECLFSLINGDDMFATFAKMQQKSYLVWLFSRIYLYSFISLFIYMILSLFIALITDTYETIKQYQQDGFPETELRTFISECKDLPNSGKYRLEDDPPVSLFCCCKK

[19] = cytotoxicity in HEK-293T cells, dose response, cytotoxicity control for TCR NF-kB inhibitor project, luminescence, T-cell screen hits (AID 489026); format: functional, cell-based;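 further: cells exposed to compound about 14 hours before the viability readout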
[20] = biological target: T5, Endoribonuclease toxin MazF (Escherichia coli K-12, UniProt P0AE70); assay: fluorescent RNA oligo signal without MazF, dose response, counter-screen for MazEF activator project, biochemical, fluorescence, single-stranded RNase substrate (AID 588502); format: functional
T5 sequence (P0AE70 whole entry): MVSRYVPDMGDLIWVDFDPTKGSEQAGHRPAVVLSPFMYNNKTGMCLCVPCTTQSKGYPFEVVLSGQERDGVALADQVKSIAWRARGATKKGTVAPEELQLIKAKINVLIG

[21] = HEK293T cell cytotoxicity, dose response, cytotoxicity control for HIV Vif inhibitor project, cherry-picks (AID 652208); format: functional, cell-based
[22] = biological target: T6, Estrogen receptor (Homo sapiens, UniProt P03372);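 further: potency for inhibiting coactivator peptide recruitment to the receptor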
T6 sequence (P03372 whole entry): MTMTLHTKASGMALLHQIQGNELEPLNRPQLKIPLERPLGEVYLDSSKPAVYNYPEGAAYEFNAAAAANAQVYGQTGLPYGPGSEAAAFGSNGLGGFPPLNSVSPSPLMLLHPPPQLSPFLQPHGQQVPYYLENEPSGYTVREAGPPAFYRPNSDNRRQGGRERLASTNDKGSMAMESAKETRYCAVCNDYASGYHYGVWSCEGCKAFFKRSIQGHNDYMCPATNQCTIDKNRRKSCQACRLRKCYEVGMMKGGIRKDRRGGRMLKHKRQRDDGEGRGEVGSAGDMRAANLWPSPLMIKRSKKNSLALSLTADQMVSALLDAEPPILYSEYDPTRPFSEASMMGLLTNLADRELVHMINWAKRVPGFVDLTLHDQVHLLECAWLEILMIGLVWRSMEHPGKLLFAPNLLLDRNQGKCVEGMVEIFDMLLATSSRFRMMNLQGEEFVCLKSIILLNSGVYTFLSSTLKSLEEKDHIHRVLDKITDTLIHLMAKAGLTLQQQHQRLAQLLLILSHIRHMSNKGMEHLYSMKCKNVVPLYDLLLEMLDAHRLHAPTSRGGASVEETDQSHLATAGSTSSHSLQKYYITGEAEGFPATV

[23] = HEp-2 cell cytotoxicity, dose response, cytotoxicity control for RSV inhibitor project, HTS (AID 2410); format: functional; conditions: human respiratory syncytial virus
[24] = biological target: T5, Endoribonuclease toxin MazF; assay: MazF toxin RNase activators, dose response, biochemical, fluorescence, single-stranded RNA substrate, uHTS hits (AID 588481); format: functional
[25] = biological target: Genome polyprotein (dengue virus type 2, UniProt P29990); assay: Dengue-2 NS5 methyltransferase inhibitors, primary screen, biochemical, confirmation dose response (AID 588689); format: functional
Sequence of Genome polyprotein (P29990 2492-3391 limits assumed): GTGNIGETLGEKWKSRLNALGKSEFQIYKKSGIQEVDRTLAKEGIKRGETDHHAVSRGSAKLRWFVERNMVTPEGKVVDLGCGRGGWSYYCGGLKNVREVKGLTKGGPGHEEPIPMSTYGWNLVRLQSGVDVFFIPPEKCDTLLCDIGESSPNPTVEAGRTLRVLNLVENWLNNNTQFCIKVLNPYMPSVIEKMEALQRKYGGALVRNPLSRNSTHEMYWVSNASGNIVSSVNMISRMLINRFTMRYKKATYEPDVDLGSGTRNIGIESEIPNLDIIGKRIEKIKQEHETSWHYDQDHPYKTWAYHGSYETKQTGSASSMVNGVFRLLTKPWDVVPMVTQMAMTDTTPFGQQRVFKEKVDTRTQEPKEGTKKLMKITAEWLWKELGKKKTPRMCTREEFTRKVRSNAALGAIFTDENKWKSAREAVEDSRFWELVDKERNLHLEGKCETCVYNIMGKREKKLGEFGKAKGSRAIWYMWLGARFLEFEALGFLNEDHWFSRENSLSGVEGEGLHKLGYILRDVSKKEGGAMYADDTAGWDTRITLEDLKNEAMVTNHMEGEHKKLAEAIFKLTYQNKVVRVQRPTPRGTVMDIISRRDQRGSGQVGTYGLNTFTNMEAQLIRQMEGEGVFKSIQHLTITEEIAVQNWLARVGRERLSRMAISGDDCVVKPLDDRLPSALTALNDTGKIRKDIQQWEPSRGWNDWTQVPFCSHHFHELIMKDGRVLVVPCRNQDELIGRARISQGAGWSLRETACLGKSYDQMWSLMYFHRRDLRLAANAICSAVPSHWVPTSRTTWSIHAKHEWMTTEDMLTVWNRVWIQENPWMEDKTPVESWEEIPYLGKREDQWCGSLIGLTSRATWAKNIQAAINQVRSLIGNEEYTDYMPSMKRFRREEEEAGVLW

[26] = biological target: T7, Mannose-6-phosphate isomerase (Homo sapiens, UniProt P34949); assay: inhibitors of human PMI, primary screen, biochemical, fluorescence intensity, coupled assay (AID 1209)
T7 sequence (P34949 whole entry): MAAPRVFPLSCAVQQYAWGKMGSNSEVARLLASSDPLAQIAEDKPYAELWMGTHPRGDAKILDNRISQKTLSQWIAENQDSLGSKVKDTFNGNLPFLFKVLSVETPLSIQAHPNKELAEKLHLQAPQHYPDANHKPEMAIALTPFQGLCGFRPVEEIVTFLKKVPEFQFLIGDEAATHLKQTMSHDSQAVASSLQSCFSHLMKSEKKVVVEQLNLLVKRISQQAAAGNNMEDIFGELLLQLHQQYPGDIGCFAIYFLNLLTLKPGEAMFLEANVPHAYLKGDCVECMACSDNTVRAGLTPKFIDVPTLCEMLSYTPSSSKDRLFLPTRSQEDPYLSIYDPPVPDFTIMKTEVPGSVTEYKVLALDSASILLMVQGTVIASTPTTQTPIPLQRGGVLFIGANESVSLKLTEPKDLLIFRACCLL

[27] = biological target: T7, Mannose-6-phosphate isomerase; assay: human PMI inhibitors, high substrate, primary screen, biochemical, fluorescence intensity, high mannose 6-phosphate (AID 1220)

Cc1c(NC(=O)c2coc(=O)c(Br)c2)c(=O)n(-c2ccccc2)n1C
EC50 [1]: 16.8 µM (active)
EC50 [2]: 7.23 µM (active)
EC50 [3]: 7.2 µM (active)
EC50 [4]: 8.99 µM (active)
EC50 [5]: 0.61 µM (active)
EC50 [6]: 15 µM (active)

C=C1C(=O)C=C2CN(C(=O)c3ccccc3)[C@@](Cc3ccc(F)cc3)(C(=O)OC)[C@@H]12
AC50 [7]: 39.8 µM (inconclusive)
IC50 [8]: 0.473 µM (active)
AC50 [9]: 1.58 µM (active)
EC50 [10]: 0.554 µM (inconclusive)
EC50 [11]: 8.08 µM (inconclusive)
EC50 [12]: 0.662 µM (active)
EC50 [13]: > 1.11 µM (inactive)
EC50 [14]: 0.333 µM (active)
IC50 [15]: 12 µM (not active)
IC50 [16]: 3.7 µM (not active)
EC50 [17]: < 0.104 µM (active)
EC50 [18]: 1.12 µM (active)
IC50 [19]: > 80 µM (inactive)

O=C(Nc1ccc2oc(-c3ccc4ccccc4c3)nc2c1)c1cccs1
EC50 [20]: > 99 µM (inactive)
AC50 [21]: 31 µM (active)
IC50 [22]: 27.7 µM (active)
CC50 [23]: 18.6 µM (active)
EC50 [24]: > 99 µM (inactive)

Cc1cc(C(=O)N/N=C/c2ccc(O)c(O)c2O)c(C)n1-c1ccccc1
IC50 [25]: 41.9 µM (active)
IC50 [26]: > 50 µM (not active)
IC50 [27]: > 50 µM (not active)
